{"source": "patent US20060160721A1", "about": "“Method of plasma lipidation to prevent, inhibit and/or reverse atherosclerosis” (BAYLOR COLLEGE OF MEDICINE, priority 2004, published 2006)", "experiment": "Lipoprotein cholesterophilicity: cholesterol partitioning between lipoproteins and 2-hydroxypropyl-cyclodextrin (CDX)", "assay_type": "binding", "details": "isolated LDL and HDL enriched with POPC by DP", "method": "Control samples were prepared without detergent or POPC. The samples were dialyzed as described above. […] The samples were incubated for three hours and transferred to Microcon ultracentrifugal filters with an exclusion limit of 30 kDa and centrifuged for 10 min at 12,000 rpm in an Eppendorf microfuge. Aliquots of the retentate and filtrate were analyzed for cholesterol, protein, and phospholipid. The partition coefficient Kp for the distribution of cholesterol between TLP and CDX was calculated from Kp={FCBound×[[…]} Equation 1 where TLPPro is the initial TLP-protein concentration (mg/mL), […], and FCBound, respectively are the free cholesterol concentrations in the retentate, filtrate, and bound to TLP with FCBound calculated as […]."}
{"molecule": "CCCCCCCC/C=C\\CCCCCCCC(=O)O[C@H](COC(=O)CCCCCCCCCCCCCCC)COP(=O)([O-])OCC[N+](C)(C)C", "note": "[POPC, 1-palmitoyl-2-oleoyl (PO) PC]", "values": [{"measurement": "effect of added POPC on the cholesterophilicities of LDL and HDL", "value": "dose-dependent increase"}]}
